# Entries after “also recorded” stand apart in the source; their conditions may differ. Counter-ions that a name gives are not always drawn. Like-named read-outs stand apart in the source and are kept apart here.
# Assays:
# [1] = system: rat paw; experiment: Post-ischemic reperfusion paw swelling (Example 22); type: in vivo, Sprague Dawley male rats; conditions: for Swelling change as a result of treatment: 30 minutes; for Post-ischemic reperfusion 30 minute paw swelling, Mn ± SE: P < 0.02; for % Change as a result of treatment / Paw swelling, Mean ± SE: another study; for Paw swelling, Mean ± SE: i.p. 45 minutes prior
# Text: This important disease model is used to evaluate aspects of tissue injury that occur in heart attack, or myocardial infarction, and stroke. Under these conditions, a significant period of injury can occur after blood flow has been restored, during the period of reperfusion.
# To produce ischemia, blood flow to the left hind foot was largely interrupted by application of a tourniquet made up of two size 18 rubber bands wound eight times around the leg just behind the heel. […] Both application and removal of tourniquet were carried out under ether anesthesia. Injury was equated with organ swelling, which was assayed by measurement of the dorsoventral foot diameter with a Schnelltaster caliper, just before application of the tourniquet and at various times following tourniquet removal, during the reperfusion period.
# Rats employed were Sprague Dawley males, weighing 240-280 grams. Drug comparisons were made here employing measurements 30 minutes into the reperfusion period. The widely studied drug allopurinol, a xanthine oxidase inhibitor and a free radical scavenging agent, used in the treatment of gout, and widely used to suppress experimental post-ischemic reperfusion injury was used as an experimental treatment standard. In studies below, allopurinol and all new drugs were given intraperitoneally 45-60 minutes prior to application of the tourniquet. Data are reported as the mean swelling (Mn)±standard error (SE). […] Group n is 5 or 6.
# In another study, drug comparisons were made at various times after the reperfusion period. In this study, control and drug treatment groups were as above.
# [2] = system: rat paw; conditions: in vivo; cited from earlier work
# [3] = system: platelet aggregation; experiment: Mouse tail bleeding time (Example 31 B); type: in vivo; conditions: for % Increase in bleeding time / Mouse Tail Bleeding Time: 100 mg/kg intraperitoneal; for Mouse Tail Bleeding Time: control 37.0 ± 5.25
# Protocol: A study of mouse tail bleeding time, which is an in vivo model of platelet aggregation and thrombosis was also conducted. In this widely employed model, bleeding was induced by a standardized transection of the tail tip and subsequent bleeding time was determined after vertical immersion of the tails in isotonic saline at 37° C. for thirty seconds.
# Two compounds of the invention, Compound III and Compound VIII, were assessed as compared with aspirin, in another study of mouse tail bleeding time. In this study, the mice were housed in a standard animal room rather than in a noisy small animal isolator. Also, all three drugs were administered by an intraperitoneal route, rather than a subcutaneous route for Compound III and an intraperitoneal route for aspirin.
# [4] = system: stomach ulcers; experiment: Gastric ulcers in rats with corona virus infection treated with indomethacin (Example 26); type: in vivo, rat; conditions: indomethacin 30 mg/kg oral
# Text: Corona virus is a non-lethal upper respiratory viral pathogen that not infrequently infects rat colonies. It is a type of rodent coryza or catarrh, the equivalent of a disease that falls somewhere between human influenza and a severe common cold. The animals of this study suffered from this condition, a circumstance which was evident by observation, and which was confirmed by virological diagnosis at the Biological Resources Laboratory of the University of Illinois at Chicago. Since stress is a common component of peptic ulcer development in both animals and man, it was concluded that this feature of the status of these experimental animals rendered them appropriate for an ulcer study.
# In this study, animals were not food deprived and were divided into treatment groups such that 15 rats received 30 mg/kg indomethacin alone (in water by oral gavage), 14 rats received indomethacin plus an injection of 25 mg/kg cimetidine subcutaneously, and 7 rats received indomethacin plus subcutaneous injection of 17.5 mg/kg of Compound III.
# All animals were sacrificed by ether euthanasia 24 hours later and their stomachs evaluated for ulcer pathology. In this study ulcers were not hemorrhagic. Results are shown below as the average number of stomach ulcers per stomach.
# [5] = system: peritoneal neutrophils; experiment: In vitro neutrophil chemotaxis toward zymosan-activated rat serum (Example 24); type: cell-based, mouse; conditions: for IC50: 6 h, read-out: ID50 (molar concentration that inhibited chemotaxis by 50 percent)
# Protocol: In vitro neutrophil chemotaxis studies were carried out by standard methods, as follows:
# Mice were injected with complete Freund's adjuvant (CFA) and peritoneal cells, principally neutrophjls (>90 percent), were reproved from the mice 24 hours thereafter. Blind-well chemotactic chambers (Nucleopore Corp., Pleasanton, Calif.) were utilized.
# Medium (RPMI 1640 plus 10 percent fetal calf serum) or medium plus 20 percent zymosan-activated rat serum (ZAS) was added to the lower compartment of each chamber. A nucleopore filter (8 μm pore size) was placed between compartments and 1×10^5 peritoneal neutrophils (above) suspended in medium were placed in the upper compartment. Chambers were incubated for six hours, after which time the filters were removed and stained with Giemsa stain. The number of cells on the lower surface of the filter was counted under a microscope. Treatment groups were assayed in duplicate.
# The studies were carried out more specifically as follows:
# Zymosan (Sigma Chemical Co., St. Louis, Mo.) was mixed with rat serum for one hour at 37° C. at 1 milligram (mg)/ml. The resulting chemoattractant composition was filtered, aliquotted and stored frozen at -70° C. prior to use.
# The above chemoattractant composition was used as a 20 percent v/v solution in medium.
# The chemotaxis chambers were arranged as follows:
# The chambers were incubated at 37° C. for six hours, after which the chambers were dismantled, and the filters removed and treated as follows:
# a) The filters were immersed in Giemsa stain diluted 1:50 for 30-45 minutes.
# b) The stained filters were rinsed gently in distilled water for 3-5 minutes.
# c) The stained, rinsed filters were air dried without blotting.
# Several compounds described herein and control compounds ("drug", above) were examined at various concentrations, in duplicate. The molar concentration of a drug that inhibited the observed chemotaxis by 50 percent, defined as the ID50 value, was determined as shown below.
# [6] = system: gastric submucosal thrombi; experiment: Inhibition of gastric submucosal thrombi (Example 30); type: in vivo, rat; conditions: 10 mg/kg IV
# Protocol: Thrombosis was induced in rat stomach submucosal blood vessels by the following two-step treatment. First, 1.5 ml of 100 percent ethanol was administered by oral gavage. This produces non-specific injury to tissues and blood vessels of the gastric mucosa. Second, 1.0 mg of adenosine diphosphate (ADP) in 1.0 ml of H2 O, was administered by oral garage 15 minutes after the administration of ethanol. Administration of ADP biases the organ response towards thrombosis by inducing platelet aggregation.
# The pathology generated is typically a disseminated pattern of multiple small thrombi, observed on examination of the gastric mucosa, 1-3 hours after ethanol administration. These thrombi are dark red, dilated, thrombosed submucosal blood vessel segments, each being approximately 1 mm thick and 2 to 6 mm long.
# In these studies, animals were treated with drug or centrol at one hour prior to ethanol administration. Thrombosis was induced as discussed before, and animals were sacrificed at 1.5 hours after ethanol administration. Focal thrombi were then counted. In this study, n=9-10.
# [7] = Dissolution and buffering of suspensions, HCl titration (Example 16)
# Text: Note that the term "apparent pK" in this context is meant to encompass the maximization of buffering that come both from solid-state dissolution and its titration as solute.
# [8] = Mus musculus, Neutrophil, read-out: Percent Inhibition of chemotaxis
# [9] = Mus musculus, Neutrophil, 20 percent zymosan-activated rat serum, six hours, 37° C.
# [10] = Mus musculus, Neutrophil, dose 1.0 μg/ml, read-out: Percent Inhibition of chemotaxis
# [11] = Mus musculus, Neutrophil, dose 0.1 μg/ml, read-out: Percent Inhibition of chemotaxis
# [12] = Mus musculus, Neutrophil, dose 10.0 μg/ml, read-out: Percent Inhibition of chemotaxis
smiles,measurement,setting,value
"Oc1ncnc2[nH]ncc12 [Allopurinol, reference compound]",Swelling change as a result of treatment,"[1]; study B, i.p., Compound III 0.2 mg/kg, allopurinol 20 mg/kg",-35%
same,"Post-ischemic reperfusion 30 minute paw swelling, Mn ± SE","[1]; study B, i.p., Compound III 0.2 mg/kg, allopurinol 20 mg/kg, control 20.5 ± 0.76",13.3 ± 0.56 0.1 mm
same,"effect on edema that develops following removal of the tourniquet, in words",[2],suppress the edema
same,near toxic level at which allopurinol is utilized in reperfusion injury,[2],20 to 30 mg/kg
"CC(=O)Oc1ccccc1C(=O)O [Aspirin, reference compound]",% Increase in bleeding time,[3],97%
same,Mouse Tail Bleeding Time,[3],72.88 ± 10.9 s
"CN/C(=N/CCSCc1nc[nH]c1C)NC#N [Cimetidine, reference compound]",Percent Inhibition of ulcer frequency,[4]; cimetidine 25 mg/kg s.c. or Compound III 17.5 mg/kg s.c.,58%
same,"Ulcer Frequency per stomach, Mn ± SE","[4]; cimetidine 25 mg/kg s.c. or Compound III 17.5 mg/kg s.c. where given, P<0.02",1.07 ± 0.25 Per Stomach
"O=S(=O)(O)OC[C@@H](OS(=O)(=O)O)[C@H]1O[C@H](O)[C@H](O)[C@H]1OS(=O)(=O)O [Compound II, 3,5,6-Tri-O-sulfo-α-D-glucofuranose, tripotassium salt]",IC50,"[5]; Mus musculus, Neutrophil",30 µM
same,inhibition at 0.1 µg/mL,[5]; [8],2.5%
same,inhibition at 1 µg/mL,[5]; [8],45.5%
same,inhibition at 10 µg/mL,[5]; [8],48.5%
"CCCCC1(CCCC)O[C@H]2O[C@H]([C@@H](COS(=O)(=O)O)OS(=O)(=O)O)[C@H](OS(=O)(=O)O)[C@H]2O1 [Compound IV, 1,2-O-(5-Nonylidene)-3,5,6-tri-O-sulfo-α-D-glucofuranose, tripotassium salt]","Post-ischemic reperfusion 30 minute paw swelling, Mn ± SE","[1]; study D, 0.2 mg/kg i.p., control 11.4 ± 0.51",21.2 ± 2.25 0.1 mm
same,Swelling change as a result of treatment,"[1]; study D, 0.2 mg/kg i.p., edema enhancement",+86%
same,IC50,[5]; [9],> 10 µM
same,inhibition at 1 µg/mL,[5]; [10],44%
same,Percent Inhibition of chemotaxis,"[5]; dose 1.0 μg/ml, tripotassium salt",28.5%
"CCC1(CC)O[C@H]2O[C@H]([C@@H](COS(=O)(=O)O)OS(=O)(=O)O)[C@H](OS(=O)(=O)O)[C@H]2O1 [Compound V, 1,2-O-(3-Pentylidene)-3,5,6-tri-O-sulfo-α-D-glucofuranose, tripotassium salt]",IC50,[5]; [9],2 µM
same,inhibition at 0.1 µg/mL,[5]; [11],-8%
same,inhibition at 1 µg/mL,[5]; [10],62%
same,inhibition at 10 µg/mL,[5]; [12],101%
"O=S(=O)(O)OC[C@H]1O[C@H](OS(=O)(=O)O)[C@H](O)[C@@H](OS(=O)(=O)O)[C@@H]1O [Compound VII, 1,3,6-Tri-O-sulfo-α-D-glucopyranose, tripotassium salt, reference compound]",IC50,"[5]; Mus musculus, Neutrophil",< 100 µM
same,inhibition at 0.1 µg/mL,[5]; [8],8%
same,inhibition at 1 µg/mL,[5]; [8],23%
same,inhibition at 10 µg/mL,[5]; [8],29%
"CC1(C)O[C@H]2O[C@H]([C@@H](COS(=O)(=O)O)OS(=O)(=O)O)[C@@H](OS(=O)(=O)O)[C@H]2O1 [Compound VIII, 1,2-O-(2-Propylidene)-3,5,6-tri-O-sulfo-α-D-allofuranose, tripotassium salt]",paw swelling less than control,"[1]; 60 minutes of reperfusion time, i.p.",71%
same,% Change as a result of treatment,"[1]; reperfusion time 20 mins., i.p.",-46%
same,"Paw swelling, Mean ± SE","[1]; reperfusion time 20 mins., control 8.20 ± 1.02",4.60 ± 0.40 0.1 mm
same,% Change as a result of treatment,"[1]; reperfusion time 30 mins., i.p.",-64%
same,"Paw swelling, Mean ± SE","[1]; reperfusion time 30 mins., control 6.60 ± 0.87",2.40 ± 0.51 0.1 mm
same,Drug Effect on thrombi,[6],-38.1%
same,"Mean Thrombi per Stomach, ±SE","[6]; ethanol + ADP, control 10.60 ± 1.42",6.56 ± 1.60 per Stomach
same,% Increase in bleeding time,[3],278%
same,Mouse Tail Bleeding Time,[3],139.88 ± 28.23 s
same,potency relative to aspirin in prolonging mouse tail bleeding time / suppressing platelet aggregation,"[3]; first study: aspirin 75 mg/kg IP, Compound III s.c. or oral, second study: all IP 100 mg/kg, tripotassium salt",more effective than aspirin; also recorded: more potent than aspirin in the suppression of platelet aggregation
C[C@@H]1C[C@H]2[C@@H]3CCC4=CC(=O)C=C[C@]4(C)[C@@]3(F)[C@@H](O)C[C@]2(C)[C@@]1(O)C(=O)CO [Dexamethasone],"effect on edema that develops following removal of the tourniquet, in words",[2],effective only when administered more than three hours in advance
"CCCCC[C@H](O)/C=C/[C@H]1[C@H](O)CC(=O)[C@@H]1C/C=C\CCCC(=O)O [PGE2, Prostaglandin E2, reference compound]",IC50,[5]; [9],0.1 µM
same,inhibition at 0.01 µg/mL,"[5]; Mus musculus, Neutrophil, dose 0.01 μg/ml, read-out: Percent Inhibition of chemotaxis",71%
same,inhibition at 0.1 µg/mL,[5]; [11],91.5%
same,inhibition at 0.2 µg/mL,"[5]; Mus musculus, Neutrophil, dose 0.2 μg/ml, read-out: Percent Inhibition of chemotaxis",71.5%
same,"relative activity in inhibiting neutrophil chemotaxis, in words",[5]; in vitro,about equally as active as Compound III
"C[C@]12C=CC(=O)C=C1CC[C@@H]1[C@@H]2C(=O)C[C@@]2(C)[C@H]1CC[C@]2(O)C(=O)CO [Prednisone, reference compound]",IC50,[5]; [9],> 50 µM
same,inhibition at 0.1 µg/mL,[5]; [11],15.5%
same,inhibition at 1 µg/mL,[5]; [10],16%
same,inhibition at 10 µg/mL,[5]; [12],20%
"CC(=O)Nc1ccc(C=Cc2ccc(N=C=S)cc2S(=O)(=O)O)c(S(=O)(=O)O)c1 [SITS, 4-acetamido-4'-isothiocyano-stilbene-2,2'-disulfonate, reference compound]",IC50,"[5]; Mus musculus, Neutrophil",> 20 µM
same,inhibition at 0.1 µg/mL,[5]; [8],18.5%
same,inhibition at 1 µg/mL,[5]; [8],-12.5%
same,inhibition at 10 µg/mL,[5]; [8],48.5%
"[OH][Al]([OH])[OH] [aluminum trihydroxide, reference compound]",HCl needed to lower pH of suspension to below pH 2.00,"[7]; 50 mg in 20 ml distilled water, initial pH 4.44 (aluminum trihydroxide), 4.91 (sucralfate), 4.23 (Compound III:Al), water alone 0.30",0.90 meq
same,"buffering action, in words",[7]; HCl titration,"only minor buffering power relative to distilled H2 O, but no pK"
O=C(O)Cc1ccccc1Nc1c(Cl)cccc1Cl [diclofenac],"effect on edema that develops following removal of the tourniquet, in words",[2],not effective at any time
